PubChem BioAssay (NCI)
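Cells were grown in 96-well plates and exposed to each compound for 48 hours at five concentrations; endpoints were interpolated linearly between bracketing concentrations, or set to the highest concentration if not reached. GI50 = concentration required for 50% inhibition of growth. TGI is the concentration that stops growth completely.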

Experiments:
Assay in all cases: NCI-60 cell line screen, 48 h
TK-10 renal = tested on: TK-10 renal
SW-620 colon = tested on: SW-620 colon
OVCAR-8 ovarian = tested on: OVCAR-8 ovarian
RPMI-8226 leukemia = tested on: RPMI-8226 leukemia
OVCAR-5 ovarian = tested on: OVCAR-5 ovarian
CCRF-CEM leukemia = tested on: CCRF-CEM leukemia
A549 NSCLC = tested on: A549 NSCLC
MDA-MB-435 = tested on: MDA-MB-435
HCT-15 colon = tested on: HCT-15 colon
SK-MEL-28 melanoma = tested on: SK-MEL-28 melanoma
SF-295 CNS = tested on: SF-295 CNS
NCI-H460 lung = tested on: NCI-H460 lung
MCF7 breast = tested on: MCF7 breast
SK-MEL-5 melanoma = tested on: SK-MEL-5 melanoma
NCI-H23 lung = tested on: NCI-H23 lung
HOP-62 NSCLC = tested on: HOP-62 NSCLC
CAKI-1 renal = tested on: CAKI-1 renal
SN12C renal = tested on: SN12C renal
SNB-19 CNS = tested on: SNB-19 CNS
SK-OV-3 ovarian = tested on: SK-OV-3 ovarian
ACHN renal = tested on: ACHN renal
NCI-H522 lung = tested on: NCI-H522 lung
KM12 colon = tested on: KM12 colon
HCT-116 colon = tested on: HCT-116 colon
COLO 205 colon = tested on: COLO 205 colon
T-47D breast = tested on: T-47D breast
MOLT-4 leukemia = tested on: MOLT-4 leukemia
UACC-62 melanoma = tested on: UACC-62 melanoma
K-562 leukemia = tested on: K-562 leukemia
UO-31 renal = tested on: UO-31 renal
HL-60(TB) leukemia = tested on: HL-60(TB) leukemia
SF-268 CNS = tested on: SF-268 CNS
SF-539 CNS = tested on: SF-539 CNS
SK-MEL-2 melanoma = tested on: SK-MEL-2 melanoma
HT29 colon = tested on: HT29 colon
PC-3 prostate = tested on: PC-3 prostate
MALME-3M melanoma = tested on: MALME-3M melanoma
HOP-92 NSCLC = tested on: HOP-92 NSCLC
NCI-H226 lung = tested on: NCI-H226 lung
HCC-2998 colon = tested on: HCC-2998 colon
SR leukemia = tested on: SR leukemia
UACC-257 melanoma = tested on: UACC-257 melanoma
NCI/ADR-RES ovarian = tested on: NCI/ADR-RES ovarian
U251 CNS = tested on: U251 CNS
MDA-MB-231 breast = tested on: MDA-MB-231 breast
LOX IMVI melanoma = tested on: LOX IMVI melanoma
786-0 renal = tested on: 786-0 renal
BT-549 breast = tested on: BT-549 breast
A498 renal = tested on: A498 renal
DU-145 prostate = tested on: DU-145 prostate
IGROV1 ovarian = tested on: IGROV1 ovarian
SNB-75 CNS = tested on: SNB-75 CNS
OVCAR-4 ovarian = tested on: OVCAR-4 ovarian
M14 melanoma = tested on: M14 melanoma
EKVX NSCLC = tested on: EKVX NSCLC
HS 578T breast = tested on: HS 578T breast
OVCAR-3 ovarian = tested on: OVCAR-3 ovarian

Nc1nc2c(ncn2Cc2ccccc2CO)c(=O)[nH]1
TGI (TK-10 renal): > 100 µM | TGI (SW-620 colon): > 100 µM | TGI (OVCAR-8 ovarian): > 100 µM | TGI (RPMI-8226 leukemia): > 100 µM | TGI (OVCAR-5 ovarian): > 100 µM | TGI (CCRF-CEM leukemia): > 100 µM | TGI (A549 NSCLC): > 100 µM | TGI (MDA-MB-435): > 100 µM | TGI (HCT-15 colon): > 100 µM | TGI (SK-MEL-28 melanoma): > 100 µM | TGI (SF-295 CNS): > 100 µM | TGI (NCI-H460 lung): > 100 µM | TGI (MCF7 breast): > 100 µM | TGI (SK-MEL-5 melanoma): > 100 µM | TGI (NCI-H23 lung): > 100 µM | TGI (HOP-62 NSCLC): > 100 µM | TGI (CAKI-1 renal): > 100 µM | TGI (SN12C renal): > 100 µM | TGI (SNB-19 CNS): > 100 µM | TGI (SK-OV-3 ovarian): > 100 µM | TGI (ACHN renal): > 100 µM | TGI (NCI-H522 lung): > 100 µM | TGI (KM12 colon): > 100 µM | TGI (HCT-116 colon): > 100 µM | TGI (COLO 205 colon): > 100 µM | TGI (T-47D breast): > 100 µM | TGI (MOLT-4 leukemia): > 100 µM | TGI (UACC-62 melanoma): > 100 µM | TGI (K-562 leukemia): > 100 µM | TGI (UO-31 renal): > 100 µM | TGI (HL-60(TB) leukemia): > 100 µM | TGI (SF-268 CNS): > 100 µM | TGI (SF-539 CNS): > 100 µM | TGI (SK-MEL-2 melanoma): > 100 µM | TGI (HT29 colon): > 100 µM | TGI (PC-3 prostate): > 100 µM | TGI (MALME-3M melanoma): > 100 µM | TGI (HOP-92 NSCLC): > 100 µM | TGI (NCI-H226 lung): > 100 µM | TGI (HCC-2998 colon): > 100 µM | TGI (SR leukemia): > 100 µM | TGI (UACC-257 melanoma): > 100 µM | TGI (NCI/ADR-RES ovarian): > 100 µM | TGI (U251 CNS): > 100 µM | TGI (MDA-MB-231 breast): > 100 µM | TGI (LOX IMVI melanoma): > 100 µM | TGI (786-0 renal): > 100 µM | TGI (BT-549 breast): > 100 µM | TGI (A498 renal): > 100 µM | TGI (DU-145 prostate): > 100 µM | TGI (IGROV1 ovarian): > 100 µM | TGI (SNB-75 CNS): > 100 µM | TGI (OVCAR-4 ovarian): > 100 µM | TGI (M14 melanoma): > 100 µM | TGI (EKVX NSCLC): > 100 µM | TGI (HS 578T breast): > 100 µM | TGI (OVCAR-3 ovarian): > 100 µM

COc1ccc(Nc2cc(C)nc(NCCCNc3ccnc4cc(Cl)ccc34)n2)cc1
GI50 (TK-10 renal): 1.89 µM | TGI (TK-10 renal): 3.41 µM | GI50 (SW-620 colon): 1.61 µM | TGI (SW-620 colon): 3.51 µM | GI50 (OVCAR-8 ovarian): 2.42 µM | TGI (OVCAR-8 ovarian): 6.03 µM | GI50 (RPMI-8226 leukemia): 1.81 µM | TGI (RPMI-8226 leukemia): 5 µM | GI50 (OVCAR-5 ovarian): 2.35 µM | TGI (OVCAR-5 ovarian): 6.69 µM | GI50 (CCRF-CEM leukemia): 1.31 µM | TGI (CCRF-CEM leukemia): 6.49 µM | GI50 (A549 NSCLC): 1.91 µM | TGI (A549 NSCLC): 3.86 µM | GI50 (MDA-MB-435): 1.35 µM | TGI (MDA-MB-435): 2.64 µM | GI50 (HCT-15 colon): 1.03 µM | TGI (HCT-15 colon): 2.49 µM | GI50 (SK-MEL-28 melanoma): 1.65 µM | TGI (SK-MEL-28 melanoma): 3.16 µM | GI50 (SF-295 CNS): 1.34 µM | TGI (SF-295 CNS): 2.73 µM | GI50 (NCI-H460 lung): 1.78 µM | TGI (NCI-H460 lung): 3.8 µM | GI50 (MCF7 breast): 1.16 µM | TGI (MCF7 breast): 2.74 µM | GI50 (SK-MEL-5 melanoma): 1.4 µM | TGI (SK-MEL-5 melanoma): 2.76 µM | GI50 (NCI-H23 lung): 2.27 µM | TGI (NCI-H23 lung): 5.78 µM | GI50 (HOP-62 NSCLC): 1.65 µM | TGI (HOP-62 NSCLC): 3.93 µM | GI50 (CAKI-1 renal): 1.5 µM | TGI (CAKI-1 renal): 2.87 µM | GI50 (SN12C renal): 2.74 µM | TGI (SN12C renal): 10.8 µM | GI50 (SNB-19 CNS): 3.48 µM | TGI (SNB-19 CNS): 13.4 µM | GI50 (SK-OV-3 ovarian): 1.67 µM | TGI (SK-OV-3 ovarian): 3.2 µM | GI50 (ACHN renal): 1.61 µM | TGI (ACHN renal): 3.16 µM | GI50 (NCI-H522 lung): 2.04 µM | TGI (NCI-H522 lung): 3.65 µM | GI50 (KM12 colon): 1.88 µM | TGI (KM12 colon): 3.58 µM | GI50 (HCT-116 colon): 1.27 µM | TGI (HCT-116 colon): 3.82 µM | GI50 (COLO 205 colon): 1.58 µM | TGI (COLO 205 colon): 3.22 µM | GI50 (T-47D breast): 1.68 µM | TGI (T-47D breast): 3.69 µM | GI50 (MOLT-4 leukemia): 2.95 µM | TGI (MOLT-4 leukemia): > 100 µM | GI50 (UACC-62 melanoma): 1.81 µM | TGI (UACC-62 melanoma): 3.44 µM | GI50 (K-562 leukemia): 0.495 µM | TGI (K-562 leukemia): 2.28 µM | GI50 (UO-31 renal): 1.52 µM | TGI (UO-31 renal): 2.95 µM | GI50 (HL-60(TB) leukemia): 2.37 µM | TGI (HL-60(TB) leukemia): 5.66 µM | GI50 (SF-268 CNS): 1.8 µM | TGI (SF-268 CNS): 3.61 µM | GI50 (SF-539 CNS): 1.24 µM | TGI (SF-539 CNS): 2.64 µM | GI50 (SK-MEL-2 melanoma): 2.19 µM | TGI (SK-MEL-2 melanoma): 3.76 µM | GI50 (HT29 colon): 1.1 µM | TGI (HT29 colon): 2.67 µM | GI50 (PC-3 prostate): 2.35 µM | TGI (PC-3 prostate): 9.9 µM | GI50 (MALME-3M melanoma): 2.07 µM | TGI (MALME-3M melanoma): 3.94 µM | GI50 (HOP-92 NSCLC): 1.24 µM | TGI (HOP-92 NSCLC): 3.3 µM | GI50 (NCI-H226 lung): 2.08 µM | TGI (NCI-H226 lung): 5.17 µM | GI50 (HCC-2998 colon): 1.65 µM | TGI (HCC-2998 colon): 3.45 µM | GI50 (SR leukemia): 0.778 µM | TGI (SR leukemia): 3.62 µM | GI50 (UACC-257 melanoma): 1.84 µM | TGI (UACC-257 melanoma): 3.51 µM | GI50 (NCI/ADR-RES ovarian): 2.38 µM | TGI (NCI/ADR-RES ovarian): 6.27 µM | GI50 (U251 CNS): 1.39 µM | TGI (U251 CNS): 2.8 µM | GI50 (MDA-MB-231 breast): 1.55 µM | TGI (MDA-MB-231 breast): 3.31 µM | GI50 (LOX IMVI melanoma): 1.4 µM | TGI (LOX IMVI melanoma): 2.85 µM | GI50 (786-0 renal): 1.67 µM | TGI (786-0 renal): 3.26 µM | GI50 (BT-549 breast): 1.86 µM | TGI (BT-549 breast): 4.67 µM | GI50 (A498 renal): 1.49 µM | TGI (A498 renal): 3.39 µM | GI50 (DU-145 prostate): 3.4 µM | TGI (DU-145 prostate): 10.7 µM | GI50 (IGROV1 ovarian): 2.25 µM | TGI (IGROV1 ovarian): 6.09 µM | GI50 (SNB-75 CNS): 1.28 µM | TGI (SNB-75 CNS): 2.54 µM | GI50 (OVCAR-4 ovarian): 1.44 µM | TGI (OVCAR-4 ovarian): 4.86 µM | GI50 (HS 578T breast): 1.8 µM | TGI (HS 578T breast): 4.39 µM | GI50 (OVCAR-3 ovarian): 1.65 µM | TGI (OVCAR-3 ovarian): 3.12 µM
